Test system: Leukocytes isolated from normal healthy individuals
Assay: In vitro release from leukocytes adhered to polysulfone membranes, with or without LPS
Format: cell-based, human
Experimental: Leukocytes were isolated from normal healthy individuals using established methods. The leukocytes (10^6 cells per well) were placed into 12-well tissue culture plates containing 14×14 mm squares of polysulfone membranes (Fresenius, Walnut Creek, Calif.) and allowed to adhere for 60 minutes at 37° C. in RPMI media. The media was removed, cells washed with PBS, and the removed supernatants were analyzed for cell release. RPMI media with citrate (Cai=0.25 mmol/L) or without citrate (Cai=0.89 mmol/L) was used to achieve the Cai levels described in Table 5 below. Each calcium condition also had media with or without lipopolysaccharide (LPS, 1 μg/mL) to activate the leukocytes.
The cells were exposed to these conditions for […] and removed from the media to assess release of lactoferrin (LF) and myeloperoxidase (MPO), proteins in exocytotic vesicles from neutrophils, and cytokines, IL-6 and IL-8, released from leukocytes. These compounds were assayed with commercially available Elisa kits (R & D Systems, Cell Sciences, and EMD BioSciences).

[1] = with LPS (1 μg/mL), citrate media Cai 0.25 mmol/L, 60 seconds
[2] = without LPS, citrate media Cai 0.25 mmol/L, 60 seconds

Compound: O=C(O)CC(O)(CC(=O)O)C(=O)O [Citrate]
- increases in LF, MPO, IL-6, or IL-8 on LPS stimulation (citrate-containing media with low Cai, in contrast to normal Cai media): no increases
- IL-6 release, Stimulated [1]: 2.9 pg/mL/10^6 cells
- IL-8 release, Stimulated [1]: 19.4 ng/mL/10^6 cells
- Lactoferrin release, Stimulated [1]: 187 ng/mL/10^6 cells
- Myeloperoxidase release, Stimulated [1]: 270 ng/mL/10^6 cells
- IL-6 release, Baseline [2]: 3.3 pg/mL/10^6 cells
- IL-8 release, Baseline [2]: 25.8 ng/mL/10^6 cells
- Lactoferrin release, Baseline [2]: 221 ng/mL/10^6 cells
- Myeloperoxidase release, Baseline [2]: 268 ng/mL/10^6 cells
